Values of other authors in patent US20070275092A1, “Therapeutic composition supporting the immune system” (priority 2005, published 2007).

Details: per day

[Zn] [zinc]
dosage well tolerated but with potential side effects such as anemia (attributable to copper deficiency): 200 mg
